According to publication PMC10179972, “New Hybrid Tetrahydropyrrolo[3,2,1-ij]quinolin-1-ylidene-2-thioxothiazolidin-4-ones as New Inhibitors of Factor Xa and Factor XIa: Design, Synthesis, and In Silico and Experimental Evaluation” (Molecules, 2023):
Read-outs that look alike come from different tables or passages of the source.

Legend:
[1] = target: T1, factor Xa (Homo sapiens, UniProt P00742); conditions: cited from earlier work
T1 construct: followed by the addition of factor Xa (final concentration, 2.5 nmol·L^–1)

[2] = target: T2, factor XIa (Homo sapiens, UniProt P03951); design: method as in earlier work; conditions: known actives used in validation of docking protocol, ref [1]-[6] of Table S2, column Ligand ID, cited from earlier work
[3] = target: T2, factor XIa; assay: Inhibition of factor XIa, kinetics of hydrolysis of chromogenic substrate S2366; type: biochemical; conditions: for inhibition at 30 µM: 30 μM compound, factor XIa 0.8 nmol/L, S2366 200 μmol/L, pH 8.0, read-out: Percent Inhibition at 30 μM, XIa; for IC50: substrate S2366, buffer solution
Method: Compounds 12, 14 and 16 were evaluated for their anticoagulant activity against factors Xa and Xia, and the results are presented in Table 1. For the best Xa and XIa inhibitors, additional measurements were performed to determine the IC50 values. We measured the kinetics of the hydrolysis of the specific substrates S2765 or S2366 by factors Xa and XIa, respectively, in the buffer solution and in the presence of various concentrations of compounds.
(§1) A specific low-molecular-weight chromogenic substrate, S2765 (Z-D-Arg-Gly-Arg-pNA·2HCl), was used in the case of factor Xa, while the substrate S2366 (pyroGlu-Pro-ArgpNA·HCl) (both substrates from Chromogenix, USA) was used for factor XIa.
(§2) A buffer containing 140 mM NaCl, 20 mM HEPES, and 0.1% PEG 6000 (pH 8.0) was placed in the wells of a 96-well plate, followed by the addition of factor Xa (final concentration, 2.5 nmol·L^–1) or XIa (final concentration 0.8 nmol·L^–1), the substrate S2765 (final concentration, 200 μmol·L^–1) or S2366 (final concentration, 200 μmol·L^–1), and a solution of the test compound in DMSO (final concentration, 30 μmol·L^–1; the DMSO content in the well was no more than 2%). The kinetics of the formation of p-nitroaniline were measured using a THERMOmax Microplate Reader (Molecular Devices Corporation, USA) using the absorption of light with a wavelength of 405 nm. The initial rate of substrate degradation was determined from the initial slope of the 4-nitroaniline-formation curve. The rate of substrate degradation by the enzyme in the presence of the inhibitor was expressed as a percentage relative to the rate of substrate degradation in the absence of the inhibitor. The data obtained were processed using GraphPad Prism and OriginPro 8 software.

[4] = target: T1, factor Xa; assay: Inhibition of factor Xa, kinetics of hydrolysis of chromogenic substrate S2765; type: biochemical; conditions: for inhibition at 30 µM: 30 μM compound, factor Xa 2.5 nmol/L, S2765 200 μmol/L, pH 8.0, read-out: Percent Inhibition at 30 μM, Xa; for IC50: substrate S2765, buffer solution
Method: We measured the kinetics of the hydrolysis of the specific substrates S2765 or S2366 by factors Xa and XIa, respectively, in the buffer solution and in the presence of various concentrations of compounds.
as §1
as §2, with “The kinetics of the formation of p-nitroaniline were measured using a THERMOmax Microplate Reader (Molecular Devices Corporation, USA) using the absorption of light with a wavelength of 405 nm.” left out

T1 sequence (P00742 235-488 limits assumed): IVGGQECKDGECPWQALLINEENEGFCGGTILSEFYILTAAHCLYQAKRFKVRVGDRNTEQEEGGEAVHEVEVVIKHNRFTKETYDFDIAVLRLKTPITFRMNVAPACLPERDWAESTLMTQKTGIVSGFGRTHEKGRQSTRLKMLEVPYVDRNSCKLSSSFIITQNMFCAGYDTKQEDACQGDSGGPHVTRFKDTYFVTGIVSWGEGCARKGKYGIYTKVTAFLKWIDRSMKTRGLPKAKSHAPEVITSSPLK
T1 sequence (P00742 41-179 partner limits assumed): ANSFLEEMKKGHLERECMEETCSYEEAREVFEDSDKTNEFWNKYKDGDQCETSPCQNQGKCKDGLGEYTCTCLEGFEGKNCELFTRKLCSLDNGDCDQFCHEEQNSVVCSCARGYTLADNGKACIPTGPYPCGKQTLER
T2 sequence (P03951 388-625 limits assumed): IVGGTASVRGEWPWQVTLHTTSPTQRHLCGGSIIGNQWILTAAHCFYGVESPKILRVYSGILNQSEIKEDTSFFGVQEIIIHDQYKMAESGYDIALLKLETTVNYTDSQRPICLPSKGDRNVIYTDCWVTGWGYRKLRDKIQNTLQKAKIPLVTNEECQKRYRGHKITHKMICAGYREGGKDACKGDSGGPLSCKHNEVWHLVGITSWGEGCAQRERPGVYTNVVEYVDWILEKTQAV
T2 sequence (P03951 19-387 partner limits assumed): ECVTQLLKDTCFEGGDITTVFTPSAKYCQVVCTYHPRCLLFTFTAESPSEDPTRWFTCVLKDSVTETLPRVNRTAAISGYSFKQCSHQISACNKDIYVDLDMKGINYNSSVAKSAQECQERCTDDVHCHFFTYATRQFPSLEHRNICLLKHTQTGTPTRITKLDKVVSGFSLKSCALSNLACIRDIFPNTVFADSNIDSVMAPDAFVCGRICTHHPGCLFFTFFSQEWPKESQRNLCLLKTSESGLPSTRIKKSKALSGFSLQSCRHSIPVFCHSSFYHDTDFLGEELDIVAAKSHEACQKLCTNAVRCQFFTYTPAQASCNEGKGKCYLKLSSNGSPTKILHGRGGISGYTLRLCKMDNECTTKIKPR

## CS(=O)(=O)c1ccccc1-c1ccc(N2CC[C@H](NS(=O)(=O)CCc3ccc(Cl)s3)C2=O)c(F)c1 [GSV]
[1]; known actives of crystal complexes used in validation of docking protocol, no reference given, read-out: IC50, factor Xa (Table S2)
  IC50: 0.0002 µM

## CC(C)CC(=O)Nc1cc(-c2ccc(C(N)=O)cc2C(=O)O)cc([C@@H]2C[C@](C)(c3ccccc3)c3cc(C(=N)N)ccc3N2)c1 [BMS-654457]
[2]; read-out: Ki, factor XIa (Table S2, values in brackets)
  Ki: 0.0002 µM

## Cc1cc(=O)[nH]c2ccc(Cl)cc12 [MVN]
[2]
  IC50: > 0.0011 µM

## CC1(C)CC2(CCCCC2)N2C(=O)/C(=C3\SC(=S)NC3=O)c3cccc1c32 [12n, (Z)-5-(6′,6′-Dimethyl-2′-oxo-5′,6′-dihydrospiro[cyclohexane-1,4′-pyrrolo[3,2,1-ij]quinolin]-1′(2′H)-ylidene)-2-thioxothiazolidin-4-one]
[3]
  inhibition at 30 µM: 91%
  IC50: 9.41 ± 0.51 µM
[4]
  inhibition at 30 µM: 94%
  IC50: 2.6 ± 0.5 µM

## CCN1C(=O)/C(=C2/C(=O)N3c4c2cc(OC)cc4C(C)CC3(C)C)SC1=S (stereo not shown) [12f, (Z)-3-Ethyl-5-(8-methoxy-4,4,6-trimethyl-2-oxo-5,6-dihydro-4H-pyrrolo[3,2,1-ij]quinolin-1(2H)-ylidene)-2-thioxothiazolidin-4-one]
[3]
  inhibition at 30 µM: 5%
[4]
  inhibition at 30 µM: 18%

## C#CCN1C(=O)/C(=C2/C(=O)N3c4c2cc(F)cc4C(C)(c2ccccc2)CC3(C)C)SC1=S (stereo not shown) [14a, (Z)-5-(8-Fluoro-4,4,6-trimethyl-2-oxo-6-phenyl-5,6-dihydro-4H-pyrrolo[3,2,1-ij]quinolin-1(2H)-ylidene)-3-(prop-2-yn-1-yl)-2-thioxothiazolidin-4-one]
[3]
  inhibition at 30 µM: 3%
[4]
  inhibition at 30 µM: 36%

## CC1(c2ccccc2)CC(C)(C)N2C(=O)/C(=C3\SC(=S)NC3=O)c3cc(F)cc1c32 (stereo not shown) [12g, (Z)-5-(8-Fluoro-4,4,6-trimethyl-2-oxo-6-phenyl-5,6-dihydro-4H-pyrrolo[3,2,1-ij]quinolin-1(2H)-ylidene)-2-thioxothiazolidin-4-one]
[3]
  inhibition at 30 µM: 98%
  IC50: 5.03 ± 0.18 µM
[4]
  inhibition at 30 µM: 99%
  IC50: 3.7 ± 0.03 µM

## Cc1cc2c3c(c1)C(C)CC(C)(C)N3C(=O)/C2=C1\NC(=S)NC1=O (stereo not shown) [16b, (Z)-4,4,6,8-Tetramethyl-1-(5-oxo-2-thioxoimidazolidin-4-ylidene)-5,6-dihydro-4H-pyrrolo[3,2,1-ij]quinolin-2(1H)-one]
[3]
  inhibition at 30 µM: 5%
[4]
  inhibition at 30 µM: 31%

## CC1(c2ccccc2)CC(C)(C)N2C(=O)/C(=C3\SC(=S)NC3=O)c3cc(I)cc1c32 (stereo not shown) [12i, (Z)-5-(8-Iodo-4,4,6-trimethyl-2-oxo-6-phenyl-5,6-dihydro-4H-pyrrolo[3,2,1-ij]quinolin-1(2H)-ylidene)-2-thioxothiazolidin-4-one]
[3]
  inhibition at 30 µM: 96%
  IC50: 5.04 ± 0.33 µM
[4]
  inhibition at 30 µM: 75%
  IC50: 3.44 ± 0.06 µM

## O=C(NC[C@H]1CN(c2ccc(N3CCOCC3=O)cc2)C(=O)O1)c1ccc(Cl)s1 [Rivaroxaban, reference compound]
[1]
  factor-Xa inhibitor potency in words: subnanomolar
[3]
  inhibition at 30 µM: 8%

## CCOc1cc2c3c(c1)C(C)CC(C)(C)N3C(=O)/C2=C1\NC(=S)NC1=O (stereo not shown) [16a, (Z)-8-Ethoxy-4,4,6-trimethyl-1-(5-oxo-2-thioxoimidazolidin-4-ylidene)-5,6-dihydro-4H-pyrrolo[3,2,1-ij]quinolin-2(1H)-one]
[3]
  inhibition at 30 µM: 6%
[4]
  inhibition at 30 µM: 2%

## CC1CC(C)(C)N2C(=O)/C(=C3\SC(=S)NC3=O)c3cc(I)cc1c32 (stereo not shown) [12b, (Z)-5-(8-Iodo-4,4,6-trimethyl-2-oxo-5,6-dihydro-4H-pyrrolo[3,2,1-ij]quinolin-1(2H)-ylidene)-2-thioxothiazolidin-4-one]
[3]
  inhibition at 30 µM: 12%
[4]
  inhibition at 30 µM: 81%
  IC50: 3.53 ± 0.08 µM

## CC1(c2ccccc2)CC(C)(C)N2C(=O)/C(=C3\NC(=S)NC3=O)c3cc(F)cc1c32 (stereo not shown) [16d, (Z)-8-Fluoro-4,4,6-trimethyl-1-(5-oxo-2-thioxoimidazolidin-4-ylidene)-6-phenyl-5,6-dihydro-4H-pyrrolo[3,2,1-ij]quinolin-2(1H)-one]
[3]
  inhibition at 30 µM: 2%
[4]
  inhibition at 30 µM: 17%

## CC1(c2ccc(Cl)cc2)CC(C)(C)N2C(=O)/C(=C3\SC(=S)NC3=O)c3cc(I)cc1c32 (stereo not shown) [12l, (Z)-5-(6-(4-Chlorophenyl)-8-iodo-4,4,6-trimethyl-2-oxo-5,6-dihydro-4H-pyrrolo[3,2,1-ij]quinolin-1(2H)-ylidene)-2-thioxothiazolidin-4-one]
[3]
  inhibition at 30 µM: 95%
  IC50: 4.3 ± 0.06 µM
[4]
  inhibition at 30 µM: 78%
  IC50: 2.87 ± 0.21 µM

## Cc1cc2c3c(c1)C(C)CC1(CCCCC1)N3C(=O)/C2=C1\SC(=S)NC1=O (stereo not shown) [12o, (Z)-5-(6′,8′-Dimethyl-2′-oxo-5′,6′-dihydrospiro[cyclohexane-1,4′-pyrrolo[3,2,1-ij]quinolin]-1′(2′H)-ylidene)-2-thioxothiazolidin-4-one]
[3]
  inhibition at 30 µM: 15%
[4]
  inhibition at 30 µM: 48%

## CCN1C(=O)/C(=C2/C(=O)N3c4c2cccc4C(C)(c2ccccc2)CC3(C)C)SC1=S (stereo not shown) [12j, (Z)-3-Ethyl-2-thioxo-5-(4,4,6-trimethyl-2-oxo-6-phenyl-5,6-dihydro-4H-pyrrolo[3,2,1-ij]quinolin-1(2H)-ylidene)thiazolidin-4-one]
[3]
  inhibition at 30 µM: 77%
[4]
  inhibition at 30 µM: 89%

## CC1(c2ccc(Cl)cc2)CC(C)(C)N2C(=O)/C(=C3\SC(=S)NC3=O)c3cc(F)cc1c32 (stereo not shown) [12k, (Z)-5-(6-(4-Chlorophenyl)-8-fluoro-4,4,6-trimethyl-2-oxo-5,6-dihydro-4H-pyrrolo[3,2,1-ij]quinolin-1(2H)-ylidene)-2-thioxothiazolidin-4-one]
[3]
  inhibition at 30 µM: 99%
  IC50: 5.24 ± 0.29 µM
[4]
  inhibition at 30 µM: 99%
  IC50: 2.85 ± 0.23 µM

## CC1(c2ccccc2)CC(C)(C)N2C(=O)/C(=C3\SC(=S)NC3=O)c3cc(Br)cc1c32 (stereo not shown) [12h, (Z)-5-(8-Bromo-4,4,6-trimethyl-2-oxo-6-phenyl-5,6-dihydro-4H-pyrrolo[3,2,1-ij]quinolin-1(2H)-ylidene)-2-thioxothiazolidin-4-one]
[3]
  inhibition at 30 µM: 98%
  IC50: 3.73 ± 0.03 µM
[4]
  inhibition at 30 µM: 73%
  IC50: 2.28 ± 0.23 µM
